What was measured:
[1] = molecular target: purified influenza H3N2 neuraminidase (Influenza A virus, UniProt O91745); assay type: biochemical
seasonal flu = details: in vivo; cited from earlier work
A/Perth/211/2001 WT = assay type: biochemical

purified influenza H3N2 neuraminidase, sequence (O91745 whole entry, looked up): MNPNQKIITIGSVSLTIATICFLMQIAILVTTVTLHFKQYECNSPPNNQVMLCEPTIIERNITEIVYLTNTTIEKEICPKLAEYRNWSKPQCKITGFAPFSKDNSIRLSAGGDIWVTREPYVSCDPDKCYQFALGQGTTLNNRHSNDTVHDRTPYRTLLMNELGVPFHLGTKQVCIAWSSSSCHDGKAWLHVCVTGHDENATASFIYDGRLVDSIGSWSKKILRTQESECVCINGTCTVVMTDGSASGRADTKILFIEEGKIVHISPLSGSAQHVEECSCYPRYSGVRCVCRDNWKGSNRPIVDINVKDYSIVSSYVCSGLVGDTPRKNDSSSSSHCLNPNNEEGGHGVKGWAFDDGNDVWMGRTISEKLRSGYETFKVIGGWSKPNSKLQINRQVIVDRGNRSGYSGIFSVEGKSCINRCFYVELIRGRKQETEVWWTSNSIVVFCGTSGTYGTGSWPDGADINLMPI

SMILES | level of detection (LOD) of neuraminidase with this substrate [1] | effective in prophylaxis against seasonal flu (seasonal flu) | Inhibition value (A/Perth/211/2001 WT)
CC(=O)NC1C(O)CC(Oc2ccc(CCC(=O)C(F)(F)F)cc2)(C(=O)[O-])OC1C(O)C(O)CO.[Na+] (stereo not shown) [NANA-CF3] | about 10 pM |  | 
CCOC(=O)C1=C[C@@H](OC(CC)CC)[C@H](NC(C)=O)[C@@H](N)C1 [Oseltamivir] |  | 80% | 1.48/1.34
CC(=O)N[C@H]1[C@H]([C@H](O)[C@H](O)CO)OC(C(=O)O)=C[C@@H]1N=C(N)N [Zanamivir] |  | 80% | 

From US12372525B2 (priority 2013, dated 2025)
